The text below walks through data of patent US11058686B2, “5-(pyrimidin-4-yl)-2-(pyrrolidin-1-yl)nicotinonitrile compounds as IKKE, TBK1 and/or SIK2 kinases inhibitors” (DOMAINEX LIMITED, priority 2017, dated 2021).

A short description of data set [1]: Pharmacokinetic evaluation in female Balb-C mice after intravenous administration. Type of data set: in vivo. As to conditions: for half-life / t½: terminal half life in plasma (estimated); for half-life: read-out: t½ (converted); for Vd: Vd at steady state. As for the experimental part: Pharmacokinetic evaluation was performed in female Balb-C mice. For intravenous administration (IV) compounds were typically dosed at 0.5 mg/Kg in a dose volume of 5 mL/Kg via the tail vein. Compounds were typically dosed in a vehicle of 5% DMSO/95% (Kelptose 20% w/v in phosphate buffered saline (PBS) pH 7.4). Other dosing vehicles known to those skilled in the art can also be used.
Blood samples were taken by cardiac puncture under terminal anaesthesia (isoflurane) at 8 time points between 1 minute and 10 hours following IV administration, typically 1 min, 5 min, 15 min, 30 min, 1 h, 3 h, 6 h and 10 h post dosing. In some instances 2 h, 4 h and 8 h were used for the final 3 time points due to greater convenience. N=3 animals were used per time point. Plasma was immediately obtained by centrifugation, and the resulting samples frozen until analysis. Samples, along with a calibration curve prepared by spiking the compounds into control plasma, were subsequently prepared for quantitative analysis by precipitation of the plasma proteins with acetonitrile. Analysis was by ultra-high performance liquid chromatography (Agilent 1290 system) coupled to time-of-flight mass spectrometry, using electrospray ionisation (Agilent 6550 system). Pharmacokinetic parameters were determined by non-compartmental analysis of mean concentration data using Phoenix WinNonlin v6.4
The volume of distribution (Vd) is the theoretical volume into which a drug appears to be distributed assuming it is present at the same concentration everywhere as it is in plasma.
The Vd at steady state (Vdss) is calculated by multiplying the clearance (Cl) by the mean residence time (MRT). Clearance is measured by dividing the dose by the Area under the concentration time curve. Cl=Dose/AUC0-∞ Vdss=Cl×MRT
The mean residence time is calculated by dividing the area under the second moment curve (AUMC) by the area under the concentration time curve (AUC). The second moment curve can be generated by plotting […] MRT=AUMC/AUC (ii) t1/2 in Mice (Estimated)
The compound half life (t1/2) is the time for the concentration of the drug to halve in the plasma. The terminal half life was typically estimated from the gradient of a log concentration/time plot using the last 3 points. Both the Cl and the Vd contribute to the observed half life. A larger Vd and smaller Cl gives a longer t1/2.

Data set [2] in a line: Human hepatocyte (liver cell) stability. In kind it is in vitro ADME. The note with it: intrinsic clearance, cryopreserved pooled human hepatocytes, 3 μM compound, 0-60 min; for Human Heps (μL/min/10^6 cells): Table 5, comparative examples; for Human hepatocyte stability (μL/min/10^6 cells): Table 4. As for the experimental part:
Commercially available cryopreserved pooled human hepatocytes were purchased and stored in liquid nitrogen prior to use. Williams E media supplemented with 2 mM L-glutamine and 25 mM HEPES and the appropriate test compound (final substrate concentration 3 μM; final DMSO concentration 0.25%) were pre-incubated at 37° C. prior to the addition of a suspension of cryopreserved human hepatocytes (final cell density 0.5×10^6 viable cells/mL in Williams E media supplemented with 2 mM L-glutamine and 25 mM HEPES) to initiate the reaction. The final incubation volume is 500 μL. Two control compounds were included in each test alongside the vehicle control, typically verapamil and umbelliferone.
The reactions were stopped after 0 min, 5 min, 20 min, 40 min and 60 min by transferring 50 μL of the incubate to 100 μL methanol containing an internal standard. The termination plates were subsequently centrifuged at 2500 rpm at 4° C. to precipitate the protein. Following protein precipitation the sample supernatants are combined in cassettes of up to 4 compounds and analysed by LC-MS/MS conditions.
The In peak area ratio (compound peak area/internal standard peak area) was plotted against time and the gradient of the line determined. Elimination rate constant (k)=−(gradient) Half life(t1/2)(min)=0.693/k V(μL/10^6 cells)=Incubation volume (μL)/number of cells in incubation (×10^6) Intrinsic Clearance(Clint)(μL/min/million cells)=V×0.693/t1/2
If the two control compounds are not within historical specified limits then the results are rejected and the experiment repeated.

In data set [3] the target is T1, IKKε (Homo sapiens, UniProt Q14164).
T1 sequence (Q14164 1-716): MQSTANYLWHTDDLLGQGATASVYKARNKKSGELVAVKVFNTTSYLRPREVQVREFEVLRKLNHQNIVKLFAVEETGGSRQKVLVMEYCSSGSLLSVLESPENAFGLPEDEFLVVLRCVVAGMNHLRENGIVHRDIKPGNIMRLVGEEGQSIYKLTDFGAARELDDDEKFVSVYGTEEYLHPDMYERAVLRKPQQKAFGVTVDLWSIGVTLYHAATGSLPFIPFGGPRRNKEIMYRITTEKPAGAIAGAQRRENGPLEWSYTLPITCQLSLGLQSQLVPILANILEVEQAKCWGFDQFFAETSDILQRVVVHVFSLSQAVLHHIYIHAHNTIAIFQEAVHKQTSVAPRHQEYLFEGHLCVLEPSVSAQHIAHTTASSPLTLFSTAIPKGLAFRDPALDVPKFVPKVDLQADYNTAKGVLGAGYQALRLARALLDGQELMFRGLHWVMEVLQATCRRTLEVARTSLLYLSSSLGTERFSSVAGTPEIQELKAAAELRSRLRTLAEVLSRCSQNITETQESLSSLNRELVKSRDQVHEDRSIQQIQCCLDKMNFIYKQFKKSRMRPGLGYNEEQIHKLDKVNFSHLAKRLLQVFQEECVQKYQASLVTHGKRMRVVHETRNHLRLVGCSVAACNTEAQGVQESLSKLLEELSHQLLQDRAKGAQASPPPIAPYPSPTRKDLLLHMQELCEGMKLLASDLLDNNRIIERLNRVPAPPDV
The data set can be described thus: IKKε enzyme potency, time-resolved fluorescence Lanthascreen kinase assay. Type of data set: biochemical. The note with it: IC50 at apparent Km for ATP (20 μM), 1 h reaction; read-out: Inhibition of IKKε. As for the experimental part:
(§1) Compounds of the invention (synthesised as described above), and Comparative Examples 1 to 5 (which may be synthesised as described in WO 2014/128486), were tested for potency against the IKKε and TBK1 enzyme as follows:
(§2) Inhibition studies were performed using a time-resolved fluorescence-based Lanthascreen™ assay. Phosphorylation of a fluorescein-labelled substrate peptide is measured using terbium-labeled phosphospecific antibodies. Terbium is excited at 340 nm and the FRET energy transfer to fluorescein is measured at 495 and 520 nm. The emission ratio between 520 and 495 is a measure of the level of phosphorylation of the substrate by the kinase.
(§3) Kinase inhibition assays (5 μL) were performed at 20° C. in 384-well plate format. Compound IC50 values were determined at the apparent Km for ATP (20 μM) based on a […] assay (Invitrogen) using 8 or 10 point curves in duplicate. The final reaction conditions contained 380 nM fluorescein-IkBα substrate (DRHDSGLDSMKDE) [SEQ ID No 1], 20 μM ATP, 0.9-3 nM IKKε or or 6-8 nM TBK1 kinase respectively, and 1% DMSO in kinase assay buffer consisting of 50 mM HEPES (pH 7.5), 10 mM MgCl2, 1 mM EGTA, 0.05% Brij-35.
(§4) Compound dilutions were prepared from 10 mM DMSO stocks by dilution into DMSO. Compound dilution series were further diluted in kinase assay buffer to give a 5% DMSO stock, the final concentration in the assay being 1% DMSO.
(§5) The kinase phosphorylation assay was initiated by the addition of the kinase and the reaction was allowed to proceed for 1 h or 2.5 h for IKKε and TBK1 kinase respectively. Both conditions were within the linearity of the phosphorylation. The reaction was stopped by the addition of 10 mM EDTA, and phosphorylation was detected after a 1 hour incubation with 1.5 nM terbium-labelled antibody against phosphorylation at Serine 32 on the IkBα peptide, both in TR-FRET dilution buffer (Invitrogen).
On the technique in general: In TR-FRET formats the signal depends on donor and acceptor labels being close together.

Data set [4] has as its target T2, TBK1 (Homo sapiens, UniProt Q9UHD2).
T2 sequence (Q9UHD2 1-729): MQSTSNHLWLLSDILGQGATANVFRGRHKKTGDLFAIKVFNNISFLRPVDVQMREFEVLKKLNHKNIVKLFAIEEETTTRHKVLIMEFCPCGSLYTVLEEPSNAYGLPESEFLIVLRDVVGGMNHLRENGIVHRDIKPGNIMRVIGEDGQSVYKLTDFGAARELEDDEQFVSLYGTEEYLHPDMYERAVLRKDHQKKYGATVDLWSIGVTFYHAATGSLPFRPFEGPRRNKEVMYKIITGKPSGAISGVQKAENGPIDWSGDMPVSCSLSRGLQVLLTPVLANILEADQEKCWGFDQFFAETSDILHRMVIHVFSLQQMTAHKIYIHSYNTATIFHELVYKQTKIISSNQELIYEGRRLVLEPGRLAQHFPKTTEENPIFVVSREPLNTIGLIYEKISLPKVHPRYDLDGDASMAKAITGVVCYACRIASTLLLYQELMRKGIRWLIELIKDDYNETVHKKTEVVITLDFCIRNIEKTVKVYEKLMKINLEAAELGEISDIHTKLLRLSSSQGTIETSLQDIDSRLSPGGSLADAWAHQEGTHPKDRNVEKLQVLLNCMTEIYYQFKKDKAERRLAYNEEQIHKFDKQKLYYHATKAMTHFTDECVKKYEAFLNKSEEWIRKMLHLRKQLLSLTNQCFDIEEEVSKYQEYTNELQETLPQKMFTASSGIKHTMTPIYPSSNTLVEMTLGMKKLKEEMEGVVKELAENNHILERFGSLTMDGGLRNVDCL
The data set can be described thus: TBK1 enzyme potency, time-resolved fluorescence Lanthascreen kinase assay. In kind it is biochemical. The note with it: IC50 at apparent Km for ATP (20 μM), 2.5 h reaction; read-out: Inhibition of TBK1. As for the experimental part:
as §1, §2, §3, §4, §5

The target in data set [5] is T3, SIK2 (Homo sapiens, UniProt Q9H0K1).
T3 construct: purchased Reaction Biology Corporation
T3 sequence (Q9H0K1 whole entry): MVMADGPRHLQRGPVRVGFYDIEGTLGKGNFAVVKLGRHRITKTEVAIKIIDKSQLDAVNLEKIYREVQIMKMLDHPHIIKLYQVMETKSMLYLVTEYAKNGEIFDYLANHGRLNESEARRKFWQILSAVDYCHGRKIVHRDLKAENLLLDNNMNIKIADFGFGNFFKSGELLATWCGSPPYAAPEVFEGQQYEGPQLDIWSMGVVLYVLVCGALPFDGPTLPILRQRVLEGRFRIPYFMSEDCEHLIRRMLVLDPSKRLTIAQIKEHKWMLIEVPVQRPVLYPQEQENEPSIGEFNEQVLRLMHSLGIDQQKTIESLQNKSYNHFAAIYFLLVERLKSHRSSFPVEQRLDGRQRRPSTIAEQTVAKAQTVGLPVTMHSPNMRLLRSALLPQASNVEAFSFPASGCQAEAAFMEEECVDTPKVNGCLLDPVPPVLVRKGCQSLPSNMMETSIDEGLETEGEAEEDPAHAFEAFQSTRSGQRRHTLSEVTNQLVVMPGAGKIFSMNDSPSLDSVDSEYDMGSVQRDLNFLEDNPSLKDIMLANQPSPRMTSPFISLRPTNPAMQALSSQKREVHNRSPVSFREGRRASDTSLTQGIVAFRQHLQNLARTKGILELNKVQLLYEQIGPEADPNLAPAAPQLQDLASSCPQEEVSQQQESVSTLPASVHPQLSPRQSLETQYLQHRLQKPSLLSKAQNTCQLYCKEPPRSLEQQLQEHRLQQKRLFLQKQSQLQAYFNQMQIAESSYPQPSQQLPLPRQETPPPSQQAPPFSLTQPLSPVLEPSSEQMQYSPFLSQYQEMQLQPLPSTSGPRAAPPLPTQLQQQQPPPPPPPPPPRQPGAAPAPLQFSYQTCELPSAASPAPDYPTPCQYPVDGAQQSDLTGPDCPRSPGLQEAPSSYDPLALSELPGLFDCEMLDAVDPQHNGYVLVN
The data set can be described thus: SIK2 radiolabelled 33P-ATP Kinase HotSpot assay (Reaction Biology Corporation). Type of data set: biochemical. The note with it: IC50 at apparent Km for ATP (30 μM), 20 μM peptide substrate; read-out: Inhibition of SIK2. As for the experimental part:
SIK2 was measured using radiolabelled ^33P-ATP using the Kinase HotSpot℠ technology of Reaction Biology Corporation. The peptide AMARAASAALAARRR [SEQ ID No 2] at a concentration of 20 μM was used as the substrate. IC50 values were determined at the apparent Km for ATP (30 μM)

[6] abbreviates: mouse, Table 3, comparative examples, IV typically 0.5 mg/Kg.
Where [7] appears, read: mouse, plasma, Table 3, comparative examples, IV typically 0.5 mg/Kg, read-out: Vd.
Where [8] appears, read: Table 3, comparative examples, IV typically 0.5 mg/Kg.
[9] abbreviates: Table 2, IV typically 0.5 mg/Kg.

Like-named read-outs stand apart in the source and are kept apart here.

In the case of `N#Cc1cc(-c2ccnc(Nc3ccc(CN4CCOCC4)nc3)n2)cnc1N1CC[C@H](F)C1` [Comp. Ex. 1], in data set [1] (setting [6]), the half-life is 30 min. Besides, the Vd in data set [1] (setting [7]) was determined as 0.3 L/kg. The “Human Heps (μL/min/10^6 cells)” value in data set [2] was determined as 13 μL/min/10^6 cells.
As for `N#Cc1cc(-c2ccnc(Nc3ccc(CN4CCNC(=O)C4)nc3)n2)cnc1N1CC[C@H](F)C1` [Comp. Ex. 2], in data set [1] (setting [8]), the “Vd” value turned out to be 0.74 L/kg and the “t½” value was 40.8 min. Moreover, in data set [2], the “Human Heps (μL/min/10^6 cells)” value is given as at most 6 μL/min/10^6 cells.
As for `CN1CCN(c2ccc(Nc3nccc(-c4cnc(N5CC[C@H](F)C5)c(C#N)c4)n3)cn2)CC1` [Comp. Ex. 3], the “Human Heps (μL/min/10^6 cells)” value in data set [2] amounted to 48 μL/min/10^6 cells.
For the compound `N#Cc1cc(-c2ccnc(Nc3ccc(NC(=O)CN4CCOCC4)nc3)n2)cnc1N1CC[C@H](F)C1` [Comp. Ex. 4], the “Vd” value in data set [1] (setting [8]) was 0.54 L/kg. Moreover, in data set [1] (setting [6]), the half-life was 30 min. Also, in data set [2], the “Human Heps (μL/min/10^6 cells)” value came to 6 μL/min/10^6 cells.
Consider `N#Cc1cc(-c2ccnc(Nc3ccnc(NC(=O)CN4CCOCC4)c3)n2)cnc1N1CC[C@H](F)C1` [Comp. Ex. 5], for which the half-life in data set [1] (setting [6]) is 42 min. For the same compound, in data set [1] (setting [7]), the Vd was 0.7 L/kg. For the same compound, in data set [2], the “Human Heps (μL/min/10^6 cells)” value worked out at 6 μL/min/10^6 cells.
For `CCN1CCN(Cc2ccc(Nc3nccc(-c4cnc(N5CC[C@H](F)C5)c(C#N)c4)n3)cn2)CC1` [Ex. No. 1, 5-{2-[6-(4-Ethyl-piperazin-1-ylmethyl)-pyridin-3-ylamino]-pyrimidin-4-yl}-2-((S)-3-fluoro-pyrrolidin-1-yl)-nicotinonitrile], the IC50 in data set [3] was 16 nM; in data set [4], 9 nM; in data set [5], 7 nM. The “Vd” value in data set [1] (setting [9]) was found to be 3.3 L/kg. Moreover, the “t½” value in data set [1] (setting [9]) is 102 min. Further, in data set [2], the “Human hepatocyte stability (μL/min/10^6 cells)” value is 11 μL/min/10^6 cells.
Turning to `CCN1CCN(Cc2ccc(Nc3nccc(-c4cnc(N5CC[C@@H](F)C5)c(C#N)c4)n3)cn2)CC1` [Ex. No. 2, 5-{2-[6-(4-Ethyl-piperazin-1-ylmethyl)-pyridin-3-ylamino]-pyrimidin-4-yl}-2-((R)-3-fluoro-pyrrolidin-1-yl)-nicotinonitrile], in data set [3], the IC50 was 21 nM. Besides, in data set [4], the IC50 came out at 20 nM. Also, in data set [1] (setting [9]), the “Vd” value was 5.6 L/kg and the “t½” value was 132 min. The “Human hepatocyte stability (μL/min/10^6 cells)” value in data set [2] turned out to be 8 μL/min/10^6 cells.
On the same counts, the results for `CN1CCN(Cc2ccc(Nc3nccc(-c4cnc(N5CC[C@H](F)C5)c(C#N)c4)n3)cn2)CC1` [Ex. No. 3, 2-((S)-3-Fluoro-pyrrolidin-1-yl)-5-{2-[6-(4-methyl-piperazin-1-ylmethyl)-pyridin-3-ylamino]-pyrimidin-4-yl}-nicotinonitrile] are 24 nM, 17 nM, 4.6 L/kg, 144 min and 7 μL/min/10^6 cells.

As a reminder, the Vd is a proportionality between amount in the body and measured concentration, not a real space. Usually t½ stands for how long it takes for the measured level to halve.
